Structures can show the parent of a compound that is named as a salt. Where two headings read alike, the source gives them in different places.
Assays:
mouse paw [1] = experiment: Mouse paw edema provoked by neutral proteases (Example 32); format: in vivo; settings: two hours; SOD 150 units IV; Compound III 50 mg/kg IP and IV; SOD P<0.05, Compound III P<0.01
Procedure: Both tryptic activity and collagenase activity are components of the tissue-injuring neutral proteinase activities secreted by neutrophils. Collagenase activity has also been associated with injury to cartilage; and, in another context, with the micro-injury to blood vessels that permits the extravasation and metastasis of, and by, tumor cells.
The effects of Compound III on rat and mouse paw edema as provoked by injection of these enzymes were evaluated. SOD injected IV and Compound III injected IP and IV at zero time, (as in Example 25), inhibited edema at two hours by from 33-40 percent, in both species. […] Both drug effects were significant by t test, SOD at P<0.05 and Compound III at P<0.01.

gastric ulcers = settings: 50 mg/kg oral gavage 45 minutes before; for Frequency of ulcer-bearing rats: combined groups P<0.01
Procedure: In this method, a relatively large amount of ethanol is administered to rats by oral gavage (1.0 ml/200 gm), a procedure widely used to produce ordinary gastric ulceration. This injection, however, is given in combination with the intraperitoneal injection of heparin sulfate (10 mg/kg).
Compound III treatment was 50 mg/kg by oral garage in distilled water as diluent, at 45 minutes before ulcer induction.
The effects of ethanol alone and ethanol plus Compound III were assessed four hours after ethanol administration. The effects of ethanol plus heparin and ethanol plus heparin plus Compound III were assessed 24 hours after administration of the ulcer inducing combination. Ulcer formation was assessed as discussed in Example 20.
In this and the following examples, the potassium salt of the drug indicated by a Roman numeral was used; i.e., M is potassium (K^+).

foot pad = experiment: Inflammation provoked by carrageenan injection (Example 25); format: in vivo, mice
rat stomachs = experiment: Gastric pathology following inflammatory stress and indomethacin, fed rats (Example 20); format: in vivo, male Sprague Dawley rats; design: scale not given here; settings: stress + indomethacin 30 mg/kg oral; Compound III 50 mg/kg subcutaneously where given; 24 hours
Procedure: Stress was induced by the following procedure. On day one, under ether anesthesia, 18 male Sprague Dawley rats were injected with a suspension of Zymosan A (1 mg/ml in normal saline; Sigma Chemical Co.) in each hind paw. Swelling developed and persisted. This treatment generated activated blood complement locally (including the C5a moiety), which then spread by the bloodstream throughout the animal.
Twenty-four hours later all rat paws were reinjected, this time with 0.1 ml of proinflammatory zymosan-activated rat serum containing additional amounts of inflammatory complement fragment C5a (as in Example 23, hereinafter). Five hours later 30 mg/kg indomethacin in an aqueous suspension was given to nine such rats by oral garage. These rats also received a subcutaneous injection of 0.1 ml normal saline. Nine other such rats were given indomethacin as above, and Compound III (50 mg/kg in normal saline subcutaneously). Four additional rats, not stressed (normal) were given water by garage as a placebo and saline subcutaneously. All rats were fed ad libitum on standard diet.
Twenty-four hours later all animals were sacrificed by ether euthanasia. Their stomachs were washed with saline and evaluated for ulcer-related pathology using an illuminated magnifying glass. This assay is similar to that reported by Kinney et al., J. Med. Chem., 33:327 (1990).

stomach ulcers = experiment: Gastric ulcers in rats with corona virus infection treated with indomethacin (Example 26); format: in vivo, rat
Source text: Corona virus is a non-lethal upper respiratory viral pathogen that not infrequently infects rat colonies. It is a type of rodent coryza or catarrh, the equivalent of a disease that falls somewhere between human influenza and a severe common cold. The animals of this study suffered from this condition, a circumstance which was evident by observation, and which was confirmed by virological diagnosis at the Biological Resources Laboratory of the University of Illinois at Chicago. Since stress is a common component of peptic ulcer development in both animals and man, it was concluded that this feature of the status of these experimental animals rendered them appropriate for an ulcer study.
In this study, animals were not food deprived and were divided into treatment groups such that 15 rats received 30 mg/kg indomethacin alone (in water by oral gavage), 14 rats received indomethacin plus an injection of 25 mg/kg cimetidine subcutaneously, and 7 rats received indomethacin plus subcutaneous injection of 17.5 mg/kg of Compound III.
All animals were sacrificed by ether euthanasia 24 hours later and their stomachs evaluated for ulcer pathology. In this study ulcers were not hemorrhagic. Results are shown below as the average number of stomach ulcers per stomach.

[2] = Acute toxicity in the mouse (Example 29 A); settings: in vivo
Source text: Acute intraperitoneal and oral toxicity of Compound III was studied in the mouse. Ten animals per dose were employed.

mouse paw [3] = experiment: Mouse paw edema provoked by clostridial collagenase (Example 32); format: in vivo; settings: for maximal drug inhibition of edema: lower enzyme level (0.05 μg/ml), 100 mg/kg divided IV and IP
Procedure: Further, mouse paw edema was provoked by two levels of clostridial collagenase enzyme, in the supramaximal range (0.05 μg/ml and 0.15 μg/ml), and treated with one level of drug (Compound III; 100 mg/kg divided equally and administered IV and IP at zero time). The maximal drug inhibition observed was 81 percent at one hour and 87 percent at two hours, for the lower level of enzyme.

[4] = system: myeloperoxidase (MPO); neutrophil infiltration; experiment: Myeloperoxidase (MPO) accumulation in ZAS-swollen footpads (Example 23); format: in vivo, rat; settings: ZAS alone 94.42 ± 12.81, normal 11.67 ± 1.87, P < 0.01
Procedure: The relationship of neutrophil infiltration to ZAS-induced swelling, and its drug-inhibition, was evaluated in another study. In this study, all procedures employing ZAS and Compound III were carried out as above, except that, Compound III was administered 45 minutes before ZAS, and standardized samples of the swollen footpads were removed and subjected to analysis for myeloperoxidase activity (MPO), according to the method of Lundberg et al., Inflammation, 7:247, (1983). MPO is a neutrophil-specificenzyme, and its assay is the most widely used method of identifying the degree of neutrophil participation in organ pathology.

Source text for physchem: Note that the term "apparent pK" in this context is meant to encompass the maximization of buffering that come both from solid-state dissolution and its titration as solute.

SMILES: CC1(C)O[C@H]2O[C@H]([C@@H](COS(=O)(=O)O)OS(=O)(=O)O)[C@H](OS(=O)(=O)O)[C@H]2O1 [Compound III, 1,2-O-(2-Propylidene)-3,5,6-tri-O-sulfo-α-D-glucofuranose, tripotassium salt]
- inhibition of edema (mouse paw [1]): 33-40%
- Frequency of rats with bleeding ulcers (gastric ulcers; ethanol + heparin, 24 hours, P<0.01): 0% of Total in Group
- Frequency of ulcer-bearing rats (gastric ulcers; ethanol + heparin, 24 hours): 25% of Total in Group
- Frequency of rats with bleeding ulcers (gastric ulcers; ethanol, four hours): 0% of Total in Group
- Frequency of ulcer-bearing rats (gastric ulcers; ethanol, four hours): 11% of Total in Group
- reduction in swelling (foot pad; subcutaneous, ibuprofen 50 mg/kg, Compound III 30 mg/kg, not significant): 26%
- Swelling Change (foot pad; two hours, SOD 100 units IV, Compound III 50 mg/kg IV + 50 mg/kg IP): -74%
- Foot-Pad Swelling (foot pad; two hours, SOD 100 units IV, Compound III 50 mg/kg IV + 50 mg/kg IP, control 3.8 ± 0.67): 0.82 ± 0.46 0.1 mm
- Mean Pathology score (rat stomachs): 0.00
- Pathology score, individual rat (rat stomachs): 0.0
- ulcer reduction compared with cimetidine, in words (stomach ulcers; 17.5 mg/kg Compound III vs 25 mg/kg cimetidine): greater using Compound III than cimetidine
- Percent Inhibition of ulcer frequency (stomach ulcers; indomethacin 30 mg/kg oral, cimetidine 25 mg/kg s.c. or Compound III 17.5 mg/kg s.c.): 66%
- Ulcer Frequency per stomach, Mn ± SE (stomach ulcers; indomethacin 30 mg/kg oral, cimetidine 25 mg/kg s.c. or Compound III 17.5 mg/kg s.c. where given, P<0.02): 0.86 ± 0.46 Per Stomach
- LD50 ([2]; ip, read-out: LD50, intraperitoneal): 2800 mg/kg
- NOAEL ([2]; iv): 3000 mg/kg
- oral dose producing death ([2]; po): > 4500 mg/kg
- pKa (physchem): < 0.5
- maximal drug inhibition of edema (mouse paw [3]; one hour): 81%
- drug inhibition at higher enzyme level, in words (mouse paw [3]; two hours, 0.15 μg/ml enzyme, 100 mg/kg): not significant
- maximal drug inhibition of edema (mouse paw [3]; two hours): 87%
- MPO ([4]; 17 mg/kg, n = 6): 32.17 ± 2.83 Rel. Units
- MPO ([4]; 50 mg/kg, n = 12): 41.67 ± 8.93 Rel. Units
